Measured values taken from publication PMC5610175, “The Kinetochore Receptor for the Cohesin Loading Complex” (Cell, 2017).
Non-standard residues stand in square brackets, D forms with d. Residues, ends and D or L forms follow the SMILES beside them. No end group written: not given here. pT = C[C@@H](OP(=O)(O)O)[C@H](N)C(=O)O; pS = N[C@@H](COP(=O)(O)O)C(=O)O

What was measured:
Scc2^1-181-Scc4 (WT) = target: T1, Scc2^1-181-Scc4 (WT) (Saccharomyces cerevisiae, UniProt P40090+Q04002); assay: Peptide binding to Scc2^1-181-Scc4 WT by biolayer interferometry; design: species or system budding yeast; conditions: for binding to Scc2^1–181-Scc4 in vitro (in words): Scc2^1–181-Scc4 WT
T1 construct: made in house; host or cells: bacteria (E. coli is stated only for the Ctf19 complex proteins)
T1 sequence (P40090 1-624): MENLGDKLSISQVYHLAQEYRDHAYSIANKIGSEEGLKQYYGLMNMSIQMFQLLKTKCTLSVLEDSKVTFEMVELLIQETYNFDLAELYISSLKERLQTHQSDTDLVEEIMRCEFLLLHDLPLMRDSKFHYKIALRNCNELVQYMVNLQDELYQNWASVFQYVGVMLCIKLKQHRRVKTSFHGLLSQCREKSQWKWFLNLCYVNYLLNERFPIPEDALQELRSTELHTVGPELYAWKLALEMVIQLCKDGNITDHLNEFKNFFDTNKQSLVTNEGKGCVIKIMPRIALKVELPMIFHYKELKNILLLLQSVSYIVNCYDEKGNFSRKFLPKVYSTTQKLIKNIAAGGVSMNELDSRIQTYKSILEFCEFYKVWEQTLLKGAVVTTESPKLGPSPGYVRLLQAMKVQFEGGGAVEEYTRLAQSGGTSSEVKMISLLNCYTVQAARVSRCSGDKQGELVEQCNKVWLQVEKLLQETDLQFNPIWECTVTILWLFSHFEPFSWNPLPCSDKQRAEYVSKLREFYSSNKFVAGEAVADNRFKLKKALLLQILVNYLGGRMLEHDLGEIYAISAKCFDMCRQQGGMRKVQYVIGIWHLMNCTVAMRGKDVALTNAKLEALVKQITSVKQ
T1 sequence (Q04002 1-181 partner limits assumed): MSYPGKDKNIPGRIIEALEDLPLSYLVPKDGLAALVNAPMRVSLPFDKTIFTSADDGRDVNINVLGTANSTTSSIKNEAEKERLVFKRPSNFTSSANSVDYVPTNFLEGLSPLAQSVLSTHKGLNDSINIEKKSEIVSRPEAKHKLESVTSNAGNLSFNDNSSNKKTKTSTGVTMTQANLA
Description: Figure S5 Synthetic Ctf19^1–11 binds Scc2^1–181-Scc4, and Binding Requires Phosphorylation of Ctf19 Residue T4 or S5, Related to Figure 6 Experiments were carried out as in Figure 6B (error bars – +/−SD for three independent experiments, obscured by data points where not visible). m3 refers to immobilized Scc2^1-181-Scc4^m3. Ctf19 peptides and Scc2^1-181-Scc4 complexes used are listed in the table along with measured dissociation constants (Kd; SE – standard error for best-fit binding curve; single site, specific binding; Phos. – phosphorylated residues). TEXT PRINTED IN THE PICTURE: Ctf19 residues 1-11; Phos. none: Kd(±SE)(μM): n.d. (Scc2^1-181-Scc4: WT) | Ctf19 residues 1-11; Phos. pT4: Kd(±SE)(μM): 1757(6000+) (Scc2^1-181-Scc4: WT) | Ctf19 residues 1-11; Phos. pS5: Kd(±SE)(μM): 122(66) (Scc2^1-181-Scc4: WT); Kd(±SE)(μM): n.d. (Scc2^1-181-Scc4: m3) | Ctf19 residues 1-6; Phos. pT4;pS5: Kd(±SE)(μM): 22.6(3.0) (Scc2^1-181-Scc4: WT)
We used biolayer interferometry (ForteBio) to quantify the interaction between Scc2^1-181–Scc4 and synthetic peptides derived from the N-terminal region of Ctf19 (Tufts University Core Facility, Boston). For all steps, we used octet buffer (40mM HEPES, pH 7.5; 200mM NaCl; 1mM DTT) and low-volume 96-well opaque black plates. […] This step was allowed to reach saturation before a final incubation in octet buffer.
To derive binding curves, we first applied a linear correction so that all association steps began at zero response units. We then performed a linear drift correction by subtracting the signal for Scc2^1-181-Scc4 incubated in buffer alone during the association step (no peptide, linear subtraction for each time point, independent control for each experiment). We then applied a loading factor to correct for the Scc2^1-181-Scc4 immobilization efficiency for each well. From these normalized association curves, we extracted maximum responses for each well by averaging the signal across the final ten seconds of the association step. We performed these operations for three independent experiments, performed with new tips and samples, for each data point. […] Data points represent mean maximum responses, and error bars show the standard deviation for the three experiments. Fits were determined using GraphPad Prism software assuming a single specific binding site.

[1] = tested on: analog-sensitive DDK (Cdc7-AS3/Dbf4); assay: DDK activity assay: phosphate transfer to Ctf19-Mcm21 by analog-sensitive DDK; assay type: biochemical, S. cerevisiae; conditions: Ctf19-Mcm21 substrate, γ-^32[P]-ATP, one hour at 30°C, autoradiography, similar to those that inhibit kinase activity in vivo (Wan et al., 2006)
Description: Figure S2 Determinants of Ctf19 Phosphorylation by DDK, Related to Figure 1 (A) Products of phosphorylation reactions containing Ctf19-Mcm21, analog-sensitive DDK, γ-^32[P]-ATP, and increasing concentrations of PP1. (B) Reactions carried out as in panel A, except wild-type DDK was used as in Figure 1B. After phosphorylation, reactions were subjected to a brief cleavage reaction by incubation with trypsin (top, autoradiography). Identical cleavage reactions were carried out in the absence of DDK and ATP to identify Ctf19-Mcm21 cleavage fragments (bottom; Coomassie). A schematic of the cleavage reaction is shown below (PDB: 3ZXU). (C) Phosphorylation of mutant Ctf19-Mcm21 complexes by purified DDK. Phosphorylation reactions were carried out as in panel A except that PP1 was not included. Substrates are indicated below. […] Reactions were carried out as in (B) in the presence or absence of an equimolar amount of purified Ctf3 complex.
An S. cerevisiae strain in which Cdc7 has been tagged at its C terminus with a TAP tag (calmodulin binding peptide – TEV site – tandem Protein A tags) was grown to an optical density (A600) of 2 in 12 l of yeast extract peptone dextrose (YPD) medium. […]
For phosphorylation reactions, purified DDK was concentrated to approximately 20uM as determined by absorbance at 280nm. […] Reaction products were analyzed by SDS-PAGE and autoradiography.

[2] = tested on: centromeric Scc2 in ctf3Δ cells expressing DBF4-FRB and CTF19-FKBP12; assay: Artificial tethering of Dbf4-FRB to Ctf19-FKBP12: centromeric Scc2 localization by ChIP-qPCR; assay type: cell-based, budding yeast; conditions: rapamycin 1 μM, 2.5 hr, nocodazole and benomyl, versus DMSO, at least four independent experiments
Description: (F) Scc2 localization was assessed by ChIP-qPCR in the presence or absence of DDK tethering, CTF3, and Ctf19 phosphorylation sites. Wild-type (AM21613), ctf19-9A (AM21681), ctf19-2A (AM22360), ctf3Δ (AM21614), ctf19-9A ctf3Δ (AM21617), ctf19-2A ctf3Δ (AM22672), and control (AM21486) strains, all expressing DBF4-FRB and CTF19-FKBP12, were arrested in G1 for 3 hr before release into medium containing nocodazole, benomyl, and either DMSO (no DDK tethering) or rapamycin (DDK tethering; 1 μM) for 2.5 hr. Mean values of at least four independent experiments are shown. Error bars indicate SE (^∗p < 0.05; ^∗∗p < 0.01; Student’s t test, unpaired, two-tails; ns, not significant).
To artificially tether Dbf4 to the kinetochores, Dbf4 was tagged with FRB (pFA6a-FRB-KanMX6), and CTF19, ctf19-9A and ctf19-2A were tagged with FKBP12-TRP1 (pFA6a-FKBP12-TRP1). Proteins were tagged at their C-termini by one-step cassette integrations at their original gene loci as previously described ([Haruki et al., 2008]). Yeast strains for these experiments also carried TOR1-1, which confers rapamycin resistance, and the fpr1Δ mutation. Tethering of FRB and FKBP12 fusion proteins was induced by addition of rapamycin to the medium at a final concentration of 1 μM. For control cultures, an equal volume of DMSO was added instead. […]

[3] = target: T2, Scc2^1–181-Scc4 complex, wild type, tagged (6His-FLAG-Scc2 1-181; 6His-Scc4) (S. cerevisiae, UniProt Q04002 1-181; P40090 1-624); assay: BLI; phosphorylated T4; SE 6000+
T2 chain 1: T1 sequence (Q04002 1-181 partner limits assumed)
T2 chain 2: T1 sequence (P40090 1-624)

[4] = target: T3, Scc4, as in the crystallised Scc2^1–181-Scc4 complex (S. cerevisiae, UniProt P40090 1-624); assay: crystal structure; TEV-cleaved Scc2 1-181-Scc4 mixed with Ctf19 1-6 diphosphorylated peptide at 1:1.8; 8% PEG 4,000, 80mM PIPES pH 6, 18°C; space group P6_2, 3.19Å; conditions: both partners purified
T3 construct: Scc4, budding yeast cohesin loader subunit; Single chain of m8, for the pairs within the structure; not shown: 6His, N-terminal, cleaved
T3 sequence: T1 sequence (P40090 1-624)

[5] = target: T4, Scc2^1–181-Scc4 complex, wild type, tagged (6His-FLAG-Scc2 1-181; 6His-Scc4) (S. cerevisiae, UniProt Q04002 1-181; P40090 1-624); assay: BLI; ForteBio; 6His-tagged Scc2 1-181-Scc4 captured on NiNTA tips, Ctf19 peptides in solution at varying concentrations; 40mM HEPES pH 7.5, 200mM NaCl, 1mM DTT; steady-state responses, single specific site fit (Prism); three independent experiments; conditions: both partners purified
T4 construct: Scc4, budding yeast cohesin loader subunit; source: recombinant, expressed in bacteria, purified; not shown: 6His, N-terminal, kept; FLAG, N-terminal, kept
T4 sequence 1: T1 sequence (Q04002 1-181 partner limits assumed)
T4 sequence 2: T1 sequence (P40090 1-624)

[6] = target: T2, Scc2^1–181-Scc4 complex, wild type, …; assay: BLI; phosphorylated S5

With `CSCC[C@H](N)C(=O)N[C@@H](CC(=O)O)C(=O)N[C@@H](Cc1ccccc1)C(=O)N[C@H](C(=O)N[C@@H](COP(=O)(O)O)C(=O)N[C@@H](CC(=O)O)C(=O)O)[C@@H](C)OP(=O)(O)O` [Ctf19 residues 1-6; Phos. pT4;pS5] (HELM PEPTIDE1{M.D.F.[C[C@@H](OP(=O)(O)O)[C@H](N[*:1])C(=O)[*:2]].[O=C([C@H](COP(=O)(O)O)N[*:1])[*:2]].D}$$$$V2.0) the Kd (Scc2^1-181-Scc4 (WT); immobilized Scc2^1-181-Scc4 WT on NiNTA tips, 40mM HEPES, pH 7.5, 200mM NaCl, 1mM DTT, three independent experiments, SE for best-fit binding curve, single site, specific binding) was 22.6 µM.

`CC(C)(C)n1nc(-c2cccc3ccccc23)c2c(N)ncnc21` [PP1] was tested, and the “concentration at which phosphate transfer to Ctf19 was inhibited” value [1] was about 25 µM.

With `CO[C@H]1C[C@@H]2CC[C@@H](C)[C@@](O)(O2)C(=O)C(=O)N2CCCC[C@H]2C(=O)O[C@H]([C@H](C)C[C@@H]2CC[C@@H](O)[C@H](OC)C2)CC(=O)[C@H](C)/C=C(\C)[C@@H](O)[C@@H](OC)C(=O)[C@H](C)C[C@H](C)/C=C/C=C/C=C/1C` [rapamycin] the “effect on Ctf3 requirement for centromeric Scc2 localization (in words)” value [2] was “bypassed the Ctf3 requirement”.

For “MDFTSDTTNSH [Ctf19 residues 1-11; Phos. none, unmodified synthetic Ctf19^1–11 peptide]”, the “binding to Scc2^1–181-Scc4 in vitro (in words)” value (from here on “binding to Scc2^1–181-Scc4”) (Scc2^1-181-Scc4 (WT); pH 7.5, listed as unmodified Ctf19^1–11) was “did not interact with Scc2^1–181-Scc4” and the “binding to Scc2^1–181-Scc4” value (Scc2^1-181-Scc4 (WT); pH 7.5, listed as unphosphorylated peptide) was “did not”.

With “MDFpTSDTTNSH [Ctf19 residues 1-11; Phos. pT4, synthetic Ctf19^1–11 peptide phosphorylated at T4]” the “binding to Scc2^1–181-Scc4” value (Scc2^1-181-Scc4 (WT); pH 7.5) was “detectable binding”.

With MDF[pT]SDTTNSH [Synthetic Ctf19^1–11 peptide phosphorylated at T4 (MDFpTSDTTNSH)] the Kd [3] was 1760 µM.

B1: Scc2^1–181, as in the crystallised Scc2^1–181-Scc4 complex (domain or fragment, S. cerevisiae, UniProt Q04002 1-181, looked up)
chain: T1 sequence (Q04002 1-181 partner limits assumed)
notes: Single chain of m8, for the pairs within the structure; also called Scc2n; source: recombinant, purified with Scc4, tags cleaved with TEV protease; not shown: 6His, N-terminal, cleaved
B1: binds [4].

B2: Synthetic Ctf19^1–6 peptide phosphorylated at T4 and S5 (MDFpTpSD) (peptide)
peptide: MDF[pT][pS]D
notes: Ctf19 residues 1-6, budding yeast; also called phosphorylated Ctf19^1–6; Ctf19^1-6 diphosphorylated peptide; source: synthetic peptide (Tufts Univ. Core Facility)
B2 showed a Kd [5] of about 23 µM.

Work on MDFT[pS]DTTNSH [Synthetic Ctf19^1–11 peptide phosphorylated at S5 (MDFTpSDTTNSH)] yielded a Kd [6] of 122 µM.
